Values of other authors as cited in patent publication US20240377385A1, “METHODS AND COMPOSITIONS OF MATTER FOR TREATING CANCER AND PREDICTING RESPONSE TO THERAPY” (ICCA INC., priority 2023, published 2024).

What was measured:
[1] = system: battery of tumor cell lines; settings: in vitro; cited from earlier work
[2] = system: hypoxia inducible factor (HIF)-1; settings: cited from earlier work
[3] = system: S-180 sarcoma; settings: parenteral administration; cited from earlier work
[4] = system: PAIII androgen-independent syngeneic prostate cancer cell line; settings: daily intraperitoneal administration for 30 days, evaluation at day 40; cited from earlier work
[5] = system: T cell and B cell; settings: high dose; in vitro; cited from earlier work
[6] = system: vascular cord formation; settings: in vivo administration; cited from earlier work
[7] = system: neovascularization; settings: cited from earlier work
[8] = system: NK; settings: high dose; cited from earlier work
[9] = system: HUVEC; settings: in vitro; cited from earlier work
[10] = system: human xenografted glioma, ovarian, and neuroblastoma cells; settings: cited from earlier work
[11] = system: dendritic cells; settings: cited from earlier work
[12] = system: monocytes derived from human peripheral blood; settings: 12 hour exposure; cited from earlier work

**Q.** Which results are given for `O=C1O[C@H]([C@@H](O)CO)C(O)=C1O` [AA, ascorbic acid]?
**A.** cytotoxicity of Docetaxel, Epirubicin, Irinotecan and 5-FU [1]: Enhancement; activation of the hypoxia inducible factor (HIF)-1 [2]: suppresses activation; angiogenesis and the pro-angiogenic factors bFGF, VEGF, and MMP-2 [3]: suppression; tumor growth [3]: reduced tumor growth; pulmonary and lymphatic metastasis [4]: reduction; tumor growth [4]: significant inhibition; T cell and B cell proliferative responses as well as IL-2 secretion [5]: inhibits; vascular cord formation [6]: suppressed vascular cord formation; neovascularization [7]: suppressing neovascularization; NK cytotoxic activity [8]: inhibits; HUVEC proliferation [9]: inhibits; in vivo inhibition of xenografted cells [10]: successful in vivo inhibition; T cell activating ability of dendritic cells [11]: inhibit

**Q.** With `CCOCc1nc2c(N)nc3ccccc3c2n1CC(C)(C)O` [Group R-848, resiquimod] as the compound, how does the “FcgammaR-mediated cytokine production and antibody-dependent cellular cytotoxicity by monocytes” value [12] read?
**A.** The value was “increased”.
